From patent publication US20220348565A1, “PHARMACEUTICAL COMPOUNDS” (SENTINEL ONCOLOGY LIMITED, priority 2019, published 2022)

Columns and labels:
Assay in all cases: DiscoverX KinomeScreen kinase selectivity competition binding assay
[1] = target: T1, panel of ninety-seven kinases (Homo sapiens, UniProt P49137); conditions: MAPKAPK2; read-out: % Ctrl @ 3 μM
T1 construct: purchased DiscoverX; host or cells: T7 phage in E. coli (BL21-derived) for most kinases; HEK-293 for the rest
Procedure: (§1) Atropisomer A-2 has been tested for off-target activity against a panel of ninety-seven kinases distributed across the kinome at a concentration of 3 μM using the DiscoverX KinomeScreen assay. The DiscoverX KinomeScreen assay is a site-directed competition binding assay which measures the binding affinity of a compound to a kinase, by use of a solid supported control compound which can bind or capture the kinases in solution. In the absence of a kinase-inhibitor test compound, all of the kinase will bind to the solid support. If a kinase-inhibitor test compound is added to the assay mix, the amount of kinase binding to the solid support will be reduced, the extent of reduction being dependent on the potency of the test compound as a kinase inhibitor. […] For most assays, kinase-tagged T7 phage strains were grown in parallel in 24-well blocks in an E. coli host derived from the BL21 strain. E. coli were grown to log-phase and infected with T7 phage from a frozen stock (multiplicity of infection=0.4) and incubated with shaking at 32° C. until lysis (90-150 minutes). The lysates were centrifuged (6,000×g) and filtered (0.2 μm) to remove cell debris. The remaining kinases were produced in HEK-293 cells and subsequently tagged with DNA for qPCR detection. Streptavidin-coated magnetic beads were treated with biotinylated small molecule ligands for 30 minutes at room temperature to generate affinity resins for kinase assays. The liganded beads were blocked with excess biotin and washed with blocking buffer (SeaBlock (Pierce), 1% BSA, 0.05% Tween 20, 1 mM DTT) to remove unbound ligand and to reduce non-specific phage binding. […] Test compounds were prepared as 40× stocks in 100% DMSO and directly diluted into the assay. All reactions were performed in polypropylene 384-well plates in a final volume of 0.02 ml. […] The beads were then re-suspended in elution buffer (1×PBS, 0.05% Tween 20, 0.5 μM non-biotinylated affinity ligand) and incubated at room temperature with shaking for 30 minutes. The kinase concentration in the eluates was measured by qPCR. Compounds that bind the kinase active site and directly (sterically) or indirectly (allosterically) prevent kinase binding to the immobilized ligand, will reduce the amount of kinase captured on the solid support. […] The strength of binding of the test molecule to the kinase can be expressed as the percent control (% Ctrl) The compound(s) were screened at 3000 nM concentration, and results for primary screen binding interactions are reported as ‘% Ctrl’, where lower numbers indicate stronger hits in the matrix on the following page(s). [formula] • negative control=DMSO (100% Ctrl) • positive control=control compound (0% Ctrl)

[2] = target: T2, panel of ninety-seven kinases (Homo sapiens, UniProt O15075); conditions: DCLK1; read-out: % Ctrl @ 3 μM
T2 construct: purchased DiscoverX; host or cells: T7 phage in E. coli (BL21-derived) for most kinases; HEK-293 for the rest
Procedure: as §1

[3] = target: T3, panel of ninety-seven kinases (Homo sapiens, UniProt P80192); conditions: MAP3K9; read-out: % Ctrl @ 3 μM
T3 construct: purchased DiscoverX; host or cells: T7 phage in E. coli (BL21-derived) for most kinases; HEK-293 for the rest
Procedure: as §1

[4] = target: T4, panel of ninety-seven kinases (Homo sapiens, UniProt P30530); conditions: AXL; read-out: % Ctrl @ 3 μM
T4 construct: purchased DiscoverX; host or cells: T7 phage in E. coli (BL21-derived) for most kinases; HEK-293 for the rest
Procedure: as §1

[5] = target: T5, panel of ninety-seven kinases (Homo sapiens, UniProt Q9UM73); conditions: ALK; read-out: % Ctrl @ 3 μM
T5 construct: purchased DiscoverX; host or cells: T7 phage in E. coli (BL21-derived) for most kinases; HEK-293 for the rest
Procedure: as §1

[6] = target: T6, panel of ninety-seven kinases (Homo sapiens, UniProt Q06187); conditions: BTK; read-out: % Ctrl @ 3 μM
T6 construct: purchased DiscoverX; host or cells: T7 phage in E. coli (BL21-derived) for most kinases; HEK-293 for the rest
Procedure: as §1

[7] = target: T7, panel of ninety-seven kinases (Homo sapiens, UniProt Q15303); conditions: ERBB4; read-out: % Ctrl @ 3 μM
T7 construct: purchased DiscoverX; host or cells: T7 phage in E. coli (BL21-derived) for most kinases; HEK-293 for the rest
Procedure: as §1

[8] = target: T8, panel of ninety-seven kinases (Homo sapiens, UniProt Q86V86); conditions: PIM3; read-out: % Ctrl @ 3 μM
T8 construct: purchased DiscoverX; host or cells: T7 phage in E. coli (BL21-derived) for most kinases; HEK-293 for the rest
Procedure: as §1

[9] = target: T9, panel of ninety-seven kinases (Homo sapiens, UniProt Q9H093); conditions: NUAK2; read-out: % Ctrl @ 3 μM
T9 construct: purchased DiscoverX; host or cells: T7 phage in E. coli (BL21-derived) for most kinases; HEK-293 for the rest
Procedure: as §1

[10] = target: T10, panel of ninety-seven kinases (Homo sapiens, UniProt Q02763); conditions: TEK; read-out: % Ctrl @ 3 μM
T10 construct: purchased DiscoverX; host or cells: T7 phage in E. coli (BL21-derived) for most kinases; HEK-293 for the rest
Procedure: as §1

[11] = target: T11, panel of ninety-seven kinases (Homo sapiens, UniProt O60674); conditions: JAK2; read-out: % Ctrl @ 3 μM
T11 construct: purchased DiscoverX; host or cells: T7 phage in E. coli (BL21-derived) for most kinases; HEK-293 for the rest
Procedure: as §1

[12] = target: T12, panel of ninety-seven kinases (Homo sapiens, UniProt Q9BWU1); conditions: CDK19; read-out: % Ctrl @ 3 μM
T12 construct: purchased DiscoverX; host or cells: T7 phage in E. coli (BL21-derived) for most kinases; HEK-293 for the rest
Procedure: as §1

[13] = target: T13, panel of ninety-seven kinases (Homo sapiens, UniProt Q16539); conditions: MAPK14; read-out: % Ctrl @ 3 μM
T13 construct: purchased DiscoverX; host or cells: T7 phage in E. coli (BL21-derived) for most kinases; HEK-293 for the rest
Procedure: as §1

[14] = target: T14, panel of ninety-seven kinases (Homo sapiens, UniProt Q9HBH9); conditions: MKNK2; read-out: % Ctrl @ 3 μM
T14 construct: purchased DiscoverX; host or cells: T7 phage in E. coli (BL21-derived) for most kinases; HEK-293 for the rest
Procedure: as §1

[15] = target: T15, panel of ninety-seven kinases (Homo sapiens, UniProt Q00526); conditions: CDK3; read-out: % Ctrl @ 3 μM
T15 construct: purchased DiscoverX; host or cells: T7 phage in E. coli (BL21-derived) for most kinases; HEK-293 for the rest
Procedure: as §1

[16] = target: T16, panel of ninety-seven kinases (Homo sapiens, UniProt P45984); conditions: MAPK9; read-out: % Ctrl @ 3 μM
T16 construct: purchased DiscoverX; host or cells: T7 phage in E. coli (BL21-derived) for most kinases; HEK-293 for the rest
Procedure: as §1

[17] = target: T17, panel of ninety-seven kinases (Homo sapiens, UniProt P11309); conditions: PIM1; read-out: % Ctrl @ 3 μM
T17 construct: purchased DiscoverX; host or cells: T7 phage in E. coli (BL21-derived) for most kinases; HEK-293 for the rest
Procedure: as §1

[18] = target: T18, panel of ninety-seven kinases (Homo sapiens, UniProt Q9P1W9); conditions: PIM2; read-out: % Ctrl @ 3 μM
T18 construct: purchased DiscoverX; host or cells: T7 phage in E. coli (BL21-derived) for most kinases; HEK-293 for the rest
Procedure: as §1

[19] = target: T19, panel of ninety-seven kinases (Homo sapiens, UniProt O15530); conditions: PDPK1; read-out: % Ctrl @ 3 μM
T19 construct: purchased DiscoverX; host or cells: T7 phage in E. coli (BL21-derived) for most kinases; HEK-293 for the rest
Procedure: as §1

[20] = target: T20, panel of ninety-seven kinases (Homo sapiens, UniProt P36507); conditions: MAP2K2; read-out: % Ctrl @ 3 μM
T20 construct: purchased DiscoverX; host or cells: T7 phage in E. coli (BL21-derived) for most kinases; HEK-293 for the rest
Procedure: as §1

[21] = target: T21, panel of ninety-seven kinases (Homo sapiens, UniProt Q13873); conditions: BMPR2; read-out: % Ctrl @ 3 μM
T21 construct: purchased DiscoverX; host or cells: T7 phage in E. coli (BL21-derived) for most kinases; HEK-293 for the rest
Procedure: as §1

Structure (SMILES): CN(C)CCNC(=O)c1ccc(-c2ccc(-c3ccc(Cl)cc3)n2-c2ccccc2C(F)(F)F)cc1 (single isomer, unassigned) [Atropisomer A-2, 4-[5-(4-chlorophenyl)-1-[2-(trifluoromethyl)phenyl]pyrrol-2-yl]-N-[2-(dimethylamino)ethyl]benzamide]
- percent of control kinase binding to immobilized ligand at 3 µM [1]: 75%
- percent of control kinase binding to immobilized ligand at 3 µM [2]: 87%
- percent of control kinase binding to immobilized ligand at 3 µM [3]: 96%
- percent of control kinase binding to immobilized ligand at 3 µM [4]: 93%
- percent of control kinase binding to immobilized ligand at 3 µM [5]: 89%
- percent of control kinase binding to immobilized ligand at 3 µM [6]: 94%
- percent of control kinase binding to immobilized ligand at 3 µM [7]: 99%
- percent of control kinase binding to immobilized ligand at 3 µM [8]: 98%
- percent of control kinase binding to immobilized ligand at 3 µM [9]: 99%
- percent of control kinase binding to immobilized ligand at 3 µM [10]: 99%
- percent of control kinase binding to immobilized ligand at 3 µM [11]: 80%
- percent of control kinase binding to immobilized ligand at 3 µM [12]: 81%
- percent of control kinase binding to immobilized ligand at 3 µM [13]: 100%
- percent of control kinase binding to immobilized ligand at 3 µM [14]: 85%
- percent of control kinase binding to immobilized ligand at 3 µM [15]: 100%
- percent of control kinase binding to immobilized ligand at 3 µM [16]: 80%
- percent of control kinase binding to immobilized ligand at 3 µM [17]: 99%
- percent of control kinase binding to immobilized ligand at 3 µM [18]: 100%
- percent of control kinase binding to immobilized ligand at 3 µM [19]: 96%
- percent of control kinase binding to immobilized ligand at 3 µM [20]: 81%
- percent of control kinase binding to immobilized ligand at 3 µM [21]: 82%
